What was measured:
[1] = test system: CD4/CXCR4 distribution; experiment: Confocal microscopy of CD4 and CXCR4 distribution on resting CD4 T cells; format: cell-based, human; details: 120 nM, 2 hours
From the text: Stained cells were imaged using a Zeiss Laser Scanning Microscope (Thornwood, N.Y.), LSM 510 META, with a 40 NA 1.3 or 60 NA 1.4 oil Dic Plan-Neofluar objective. Samples were excited with two laser lines, 488 nm for GFP and 543 nm for Alexa 594. Images were simultaneously recorded in three channels: channel one: fluorescent emissions from 505 to 530 nm for GFP (green); channel two: emissions from 580 to 650 nm for Alexa 594 (red); channel three: DIC. Images were processed and analyzed by the LSM 510 META software.
FIG. 8 illustrates confocal microscopy of CD4 and CXCR4 distribution on resting CD4 T cells treated with 120 nM Jas. Resting CD4 T cells were treated with 120 nM of Jas for 2 hours, then fixed and stained with a FITC-labeled anti-human CD4 monoclonal antibody and a biotin-labeled anti-human CXCR4 monoclonal antibody followed by Alexa Fluor-594 labeled streptavidin (right panel). Untreated resting CD4 T cells were used as a control (left panel).

[2] = test system: LFA-1 activation; experiment: LFA-1 activation staining (ICAM-1/Fc chimera, flow cytometry) of T cells activated by anti-CD3/CD28 bead; format: cell-based, human
Protocol: Half million CD4 T cells in 500 μl culture medium were treated with 5 μl of human IgG (Jackson Immuno Research, West Grove, Pa.) to block non-specific staining. Cells were stained with 10 μl (50 μg/ml) of human ICAM-1 Fc chimera (R&D System, Minneapolis, Minn.) for 20 min at 4° C. Cells were washed and blocked by 5 μl of mouse IgG (Jackson ImmunoResearch, West Grove, Pa.), followed by the addition of 10 μl of FITC labeled mouse anti-human Fc (Jackson ImmunoResearch, West Grove, Pa.), and incubated for 20 min at 4° C. Cells were finally washed and resuspended in 500 μl of 1% paraformaldehyde for flow cytometry.
Thus, the effect of Jas on T cell activity was determined. FIG. 3A illustrates inhibition of HIV-1 latent infection by Jas. Effects of Jas on LFA-1 activation also were tested. Jas treated or untreated resting T cells were activated by anti-CD3/CD28 bead and stained with human ICAM-1/Fc chimera and analyzed by flow cytometer. The effects of Jas on IL-2 secretion also were measured. […] Cells were treated with Jas for 2 hours, washed, infected with HIV-1 for 5 days, then activated by anti-CD3/CD28 bead. […] Following infection, cellular DNA was PCR amplified for viral late DNA and β-actin pseudogene. Cells were pre-activated with PHA plus IL-2, then treated and infected as in FIG. 3A. […] CEM-SS cell were treated and infected as in FIG. 3A. […]

**Q.** Which results are given for `C/C1=C\[C@H](C)C[C@H](C)OC(=O)C[C@H](c2ccc(O)cc2)NC(=O)[C@@H](Cc2c(Br)[nH]c3ccccc23)N(C)C(=O)[C@H](C)NC(=O)[C@@H](C)C1` [Jas, Jasplakinolide]?
**A.** CD4/CXCR4 distribution on the surface, treated vs untreated cells [1]: did not reveal any significant difference; inhibition of LFA-1 activation ([2]; 120 nM and below): no detectable inhibition; inhibition of LFA-1 activation ([2]; 3 1μM Jas): greatly inhibited
